Where two headings read alike, the source gives them in different places.

For data set [1] the following is noted: cited from earlier work.
The test system of another data set is intestinal bacteria. The settings on record: by intestinal bacteria; cited from earlier work.
The conditions of data set [2]: person, run over marathon distance (26.2 miles), daily supplement of 10 g.
For data set [3] the following is noted: person, daily supplement of 5 g.
The conditions of data set [4]: 12 hours of storage in a refrigerator; clear, yellow liquid.
For data set [5] the following is noted: long-distance runners, 20 miles, intake of 2.8 g, placebo-controlled; cited from earlier work.

Take `C[N+](C)(C)CCO` [choline, hydroxyethyltrimethylammonium]: the “lowest-observed-adverse-effect level (LOAEL)” value in data set [1] (in vivo) is given as 7.5 g/day. The “upper tolerable daily dose” value in data set [1] (taking into consideration an element of uncertainty) is 3.5 g. Moreover, in the data set on intestinal bacteria, the “oral intake converted into di- or trimethylamine” value is “Approximately 60%”.

Take choline pyruvate [Example 1]: the performance increase in data set [2] was found to be 4%. In data set [3], the fat-free body mass result is “increase” and the weight reduction result is “approximately 3%”. Also, the stability during storage result in data set [4] was “remained stable”. In addition, where the note is “Day 4”, the Appearance entry is on record as “clear”, the “HPLC content Parapyruvate” value amounted to 2.7%, the “HPLC content Pyruvate” value amounted to 35.3% and the “IC content Choline” value is 50.6%. Besides, where the note is “Day 21”, the Appearance result was “clear”, the “HPLC content Parapyruvate” value is 2.6%, the “HPLC content Pyruvate” value is 35.8% and the “IC content Choline” value turned out to be 50.6%. In addition, for the setting “Day 42”, the Appearance entry is “clear”, the “HPLC content Parapyruvate” value is reported as 2.6%, the “HPLC content Pyruvate” value is 35.5% and the “IC content Choline” value stood at 50.7%. Further, under “Day 103”, the Appearance entry is on record as “clear”, the “HPLC content Parapyruvate” value is 2.8%, the “HPLC content Pyruvate” value was determined as 35.9% and the “IC content Choline” value was found to be 50.6%.

Consider `C[N+](C)(C)CCO.[Cl-]` [choline chloride], for which the performance increase result in data set [5] is listed as “approximately 3%”.
